Results: patent US20110034472A1, “Novel Compounds for Treatment of Cancer and Disorders Associated With Angiogenesis Function” (UNIVERSITY OF SOUTHERN CALIFORNIA, priority 2004, published 2011)

System: T24 bladder cancer cell lines
Assay: StaRT-PCR gene expression, SC23
Format: cell-based, human
Protocol: FIG. 21 illustrates RT-PCR gene expression analysis. Total RNA form T24 cells was isolated and cDNA was synthesized with 2.5 ug of total RNA. Standardized RT-PCR was performed with GENE system I gene expression kit (Gene Express Inc.). Each kit contains a mixture of the internal competitive templates and the corresponding primers.
Total RNA form T24 cells were isolated after 3h, Oh, 12h, 24h, and 48h exposure to SC23.
StaRT-PCR™ (Standardized Reverse Transcription Polymerase Chain Reaction). First described by Willey et al. ((2004) Methods Mol. Biol. 258:13-41), this technique uses standardized mixtures of competitive templates (CT) as internal standards in generating valid and reproducible numerical gene expression data for multiple genes. After the mRNA was converted to cDNA, the cDNA was mixed with a proprietary Standardized Mixture of Internal Standards™ (SMIS™, GeneExpress, Inc.). In the standard mixture, there is an internal standard CT for each gene to be measured as well as one for a reference gene. (i.e., β-actin, GAPDH). The amplicons produced by StaRT-PCR™ was then separated on capillary electrophoresis. The amount of internal standard CT or NT amplimer was determined by measuring each peak area. All data were then reported as number of molecules of mRNA for gene of interest per 10^6 molecules of reference gene (normalizer gene). Serial dilutions of the SMIS™ allow quantitative measurements over 7 log range of gene expression observed in cells from <10 to 10^7 molecules/10^6 molecules reference gene. Data presented in Table 8 are number of copies that have been normalized against 10^6 molecule of β-actin.

O=C(NNC(O)c1cc2ccccc2cc1O)c1cc2ccccc2cc1O (stereo not drawn) [SC23]
BCL2L1 expression (3 hours): 9449.42 molecules/10^6 β-actin
BCL2 expression (3 hours): 152.37 molecules/10^6 β-actin
CASP1 expression (3 hours): 68.36 molecules/10^6 β-actin
CCNA2 expression (3 hours): 126.84 molecules/10^6 β-actin
CCND3 expression (3 hours): 195.17 molecules/10^6 β-actin
CCNE1 expression (3 hours): 51.36 molecules/10^6 β-actin
CCNG1 expression (3 hours): 2956.79 molecules/10^6 β-actin
CDC2 expression (3 hours): 2365.6 molecules/10^6 β-actin
CDC25C expression (3 hours): 394.83 molecules/10^6 β-actin
CDK7 expression (3 hours): 1068.25 molecules/10^6 β-actin
CDK8 expression (3 hours): 412.64 molecules/10^6 β-actin
CDKN1A expression (3 hours): 11.42 molecules/10^6 β-actin
CDKN1B expression (3 hours): 72.37 molecules/10^6 β-actin
CDKN2A expression (3 hours): 415.63 molecules/10^6 β-actin
CDKN2C expression (3 hours): 458.41 molecules/10^6 β-actin
CYP1A2 expression (3 hours): 59.45 molecules/10^6 β-actin
DAP expression (3 hours): 9037.57 molecules/10^6 β-actin
E2F4 expression (3 hours): 7540.97 molecules/10^6 β-actin
E2F5 expression (3 hours): 268.09 molecules/10^6 β-actin
JUN expression (3 hours): 1846.15 molecules/10^6 β-actin
MAD expression (3 hours): 496.75 molecules/10^6 β-actin
MAP3K14 expression (3 hours): 55.57 molecules/10^6 β-actin
MYC expression (3 hours): 974.69 molecules/10^6 β-actin
NFKB1 expression (3 hours): 2694.24 molecules/10^6 β-actin
PCNA expression (3 hours): 8574.58 molecules/10^6 β-actin
PTGS2 expression (3 hours): 82.69 molecules/10^6 β-actin
RB1 expression (3 hours): 7076.29 molecules/10^6 β-actin
RBL2 expression (3 hours): 1287.91 molecules/10^6 β-actin
TGFBR2 expression (3 hours): 1420.02 molecules/10^6 β-actin
TGIF expression (3 hours): 3112.84 molecules/10^6 β-actin
TNFAIP1 expression (3 hours): 4737.75 molecules/10^6 β-actin
TNFRSF1A expression (3 hours): 15.56 molecules/10^6 β-actin
TNFSF10 expression (3 hours): 82.86 molecules/10^6 β-actin
TP53 expression (3 hours): 567.53 molecules/10^6 β-actin
TRAF4 expression (3 hours): 69.06 molecules/10^6 β-actin
BCL2L1 expression (6 hours): 10428.62 molecules/10^6 β-actin
BCL2 expression (6 hours): 121.2 molecules/10^6 β-actin
CASP1 expression (6 hours): 80.87 molecules/10^6 β-actin
CCNA2 expression (6 hours): 348.88 molecules/10^6 β-actin
CCND3 expression (6 hours): 175.1 molecules/10^6 β-actin
CCNE1 expression (6 hours): 33.08 molecules/10^6 β-actin
CCNG1 expression (6 hours): 6161.69 molecules/10^6 β-actin
CDC2 expression (6 hours): 1650.84 molecules/10^6 β-actin
CDC25C expression (6 hours): 606.06 molecules/10^6 β-actin
CDK7 expression (6 hours): 778.75 molecules/10^6 β-actin
CDK8 expression (6 hours): 354.76 molecules/10^6 β-actin
CDKN1A expression (6 hours): 27.06 molecules/10^6 β-actin
CDKN1B expression (6 hours): 390.76 molecules/10^6 β-actin
CDKN2A expression (6 hours): 5611.87 molecules/10^6 β-actin
CDKN2C expression (6 hours): 781.31 molecules/10^6 β-actin
CYP1A2 expression (6 hours): 10 molecules/10^6 β-actin
DAP expression (6 hours): 12572.87 molecules/10^6 β-actin
E2F4 expression (6 hours): 1285.78 molecules/10^6 β-actin
E2F5 expression (6 hours): 243.27 molecules/10^6 β-actin
JUN expression (6 hours): 4168.04 molecules/10^6 β-actin
MAD expression (6 hours): 763.05 molecules/10^6 β-actin
MAP3K14 expression (6 hours): 68.69 molecules/10^6 β-actin
MYC expression (6 hours): 2650.11 molecules/10^6 β-actin
NFKB1 expression (6 hours): 3274.07 molecules/10^6 β-actin
PCNA expression (6 hours): 6433.1 molecules/10^6 β-actin
PTGS2 expression (6 hours): 157.43 molecules/10^6 β-actin
RB1 expression (6 hours): 5973.3 molecules/10^6 β-actin
RBL2 expression (6 hours): 2112.09 molecules/10^6 β-actin
TGFBR2 expression (6 hours): 2582.67 molecules/10^6 β-actin
TGIF expression (6 hours): 8002.87 molecules/10^6 β-actin
TNFAIP1 expression (6 hours): 7127.73 molecules/10^6 β-actin
TNFRSF1A expression (6 hours): 20.58 molecules/10^6 β-actin
TNFSF10 expression (6 hours): 532.07 molecules/10^6 β-actin
TP53 expression (6 hours): 1005.63 molecules/10^6 β-actin
TRAF4 expression (6 hours): 91.86 molecules/10^6 β-actin
BCL2L1 expression (12 hours): 23160.22 molecules/10^6 β-actin
BCL2 expression (12 hours): 122.24 molecules/10^6 β-actin
CASP1 expression (12 hours): 113.28 molecules/10^6 β-actin
CCNA2 expression (12 hours): 211.27 molecules/10^6 β-actin
CCND3 expression (12 hours): 137.33 molecules/10^6 β-actin
CCNE1 expression (12 hours): 48.10 molecules/10^6 β-actin
CCNG1 expression (12 hours): 9794.14 molecules/10^6 β-actin
CDC2 expression (12 hours): 1566.64 molecules/10^6 β-actin
CDC25C expression (12 hours): 779.22 molecules/10^6 β-actin
CDK7 expression (12 hours): 2551.62 molecules/10^6 β-actin
CDK8 expression (12 hours): 605.61 molecules/10^6 β-actin
CDKN1A expression (12 hours): 129.69 molecules/10^6 β-actin
CDKN1B expression (12 hours): 310.81 molecules/10^6 β-actin
CDKN2A expression (12 hours): 403.27 molecules/10^6 β-actin
CDKN2C expression (12 hours): 770.42 molecules/10^6 β-actin
CYP1A2 expression (12 hours): 69 molecules/10^6 β-actin
DAP expression (12 hours): 38087.74 molecules/10^6 β-actin
